Experiments:
[1] = Half life of the prodrug in reaction buffer only (no alkaline phosphatase); assay type: physicochemical; conditions: reaction buffer without alkaline phosphatase; reaction buffer pH 7.4, no alkaline phosphatase
Protocol: (§1) Reaction Buffer (pH 7.4, 5 mM tris/1 mM Mg^2+/1 mM Zn^2+)
(§2) Diluted 5 ml of 50 mM tris stock, 1 ml of 50 mM MgCl2 stock, and 1 ml of ZnCl2 and then stocked to 10 ml with water.
The heat block was set at the 37 degrees. […] The aliquot […] of prodrug and drug standards were added into preheated Eppendorf tubes. Immediately after vortexing the aliquots of 25 μL of the all reaction solutions were made into the respective 96-well plate positions. The internal standard (75 μl of 500 ng/mL Glyburide) was added into all samples after each aliquots. That procedure was repeated at every 15 minute intervals for ˜4-5 hrs.
(§3) In the calculation of half life, we assumed that the disappearance of the mutual prodrug of this invention followed first order kinetics. Therefore,
(§4) The area peak ratio of prodrug vs IS was plotted against time first; the peak area ratios of later time points were normalized with the peak area ratio of initial time point (ASAP). The natural log of the normalized ratio was then plotted against time to generate a linear curve. The slope of this linear curve k was used for the following calculation.

[2] = target: alkaline phosphatase (Homo sapiens, UniProt P05187); assay: Conversion of the mutual MRA-β-agonist prodrug to salmeterol and MRA after exposure to alkaline phosphatase in vitro (LCMS); assay type: in vitro ADME; conditions: for Example 29 (GS-343071) in ALP (Peak Area Ratio) Normalized / Example 29 (GS-343071) in ALP (Peak Area Ratio) mean / Formation of dipeptide (Sagara 2006) in ALP (Peak Area Ratio) Normalized / Formation of dipeptide (Sagara 2006) in ALP (Peak Area Ratio) mean: alkaline phosphatase; for Formation of dipeptide (Sagara 2006) in ALP (Peak Area Ratio) Normalized / Formation of dipeptide (Sagara 2006) in ALP (Peak Area Ratio) mean: from prodrug Example 29
Chain of alkaline phosphatase (P05187 23-506 limits assumed): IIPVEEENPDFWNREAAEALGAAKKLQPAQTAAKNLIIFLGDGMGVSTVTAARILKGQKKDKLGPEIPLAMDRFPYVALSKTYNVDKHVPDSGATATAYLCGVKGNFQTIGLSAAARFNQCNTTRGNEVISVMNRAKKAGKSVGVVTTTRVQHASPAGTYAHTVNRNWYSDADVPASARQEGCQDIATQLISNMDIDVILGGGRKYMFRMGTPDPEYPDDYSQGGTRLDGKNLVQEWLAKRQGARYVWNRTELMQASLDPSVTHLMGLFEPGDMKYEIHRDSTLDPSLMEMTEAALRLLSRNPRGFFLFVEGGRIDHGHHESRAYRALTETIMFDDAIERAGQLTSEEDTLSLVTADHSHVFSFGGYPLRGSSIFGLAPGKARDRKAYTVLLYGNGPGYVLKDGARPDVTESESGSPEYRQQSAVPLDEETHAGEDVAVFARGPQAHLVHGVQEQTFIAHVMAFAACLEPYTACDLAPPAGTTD
Protocol: Conversion of the Mutual MRA-β-Agonist Prodrug (Described in Example 29) to Salmeterol and MRA after Exposure to Alkaline Phosphatase In Vitro
as §1, §2
Alkaline Phosphatase Stock Solution […]
Dissolved ˜2 mg of the mutual prodrug of invention in 10 ml 1:1 acetonitrile/water.
Reaction Product Stock Solution
Dissolved ˜2 mg of each MRA and β-agonist in 20 ml 1:1 acetonitrile/water
The stock solutions were mixed in microcentrifuge tubes, as depicted in the following Table:
The heat block was set at the 37 degrees. Then 0.5 mL of alkaline phosphatase solution was added into 4 preheated Eppendorf tubes. The aliquot 0.5 of prodrug and drug standards were added into preheated Eppendorf tubes. Immediately after vortexing the aliquots of 25 μL of the all reaction solutions were made into the respective 96-well plate positions. The internal standard (75 μl of 500 ng/mL Glyburide) was added into all samples after each aliquots. That procedure was repeated at every 15 minute intervals for ˜4-5 hrs.
The 96-well plates were then analyzed using the LCMS technique.
Half Life Calculation (t1/2)
as §3, §4
Graphic plotted rate constant of loss K
Drug Concentration Determination
Drug concentrations are calculated by normalizing the peak area ration to (t 0). Thus, calculated drug concentrations at any time point=normalized peak area ratio [t (0) mean/t mean]×initial drug concentration. Data (normalized peak area ratio) for the calculations of drug concentrations are listed in Table 1 and 2 for compounds in Example 29 (GS343071), salmeterol, and the dipeptide (M3 antagonist prepared by Sagara 2006).

C[N+]1(Cc2cc(C(O)CNCCCCCCOCCCCc3ccccc3)ccc2OP(=O)(O)O)CCC(CNC(=O)[C@H]2CCCN2C(=O)[C@@H]2C[C@@H](O)CN2C(=O)CC(c2ccc(F)cc2)(c2ccc(F)cc2)c2ccc(F)cc2)CC1 (stereo partly drawn) [Example 29, 1-(5-{1-Hydroxy-2-[6-(4-phenyl-butoxy)-hexylamino]-ethyl}-2-phosphonooxy-benzyl)-4-{[(1-{4-hydroxy-1-[3,3,3-tris-(4-fluoro-phenyl)-propionyl]-pyrrolidine-(S)-2-carbonyl}-pyrrolidine-(R)-2-carbonyl)-amino]-methyl}-1-methyl-piperidinium]
half-life [1]: 12.8 h
Half Life t1/2 ([2]; ALP Enzyme Conc. 0.224 mg/mL, 37 degrees, first order kinetics assumed): 1.58 h
Calculated Compound Final Conc. (μM) at 270 mins. ([2]; Added Compound Initial Conc. 86.6 μM in Reaction Mixture, ALP Enzyme Conc. 0.443 mg/mL): 7.8 µM
Example 29 (GS-343071) in ALP (Peak Area Ratio) Normalized ([2]; Time 0 mins, 37 degrees): 1.0000
Example 29 (GS-343071) in ALP (Peak Area Ratio) mean ([2]; Time 0 mins, 37 degrees): 0.2030
Example 29 (GS-343071) in ALP (Peak Area Ratio) Normalized ([2]; Time 15.0 mins, 37 degrees): 0.5887
Example 29 (GS-343071) in ALP (Peak Area Ratio) mean ([2]; Time 15.0 mins, 37 degrees): 0.1195
Example 29 (GS-343071) in ALP (Peak Area Ratio) Normalized ([2]; Time 30.0 mins, 37 degrees): 0.4340
Example 29 (GS-343071) in ALP (Peak Area Ratio) mean ([2]; Time 30.0 mins, 37 degrees): 0.0881
Example 29 (GS-343071) in ALP (Peak Area Ratio) Normalized ([2]; Time 45.0 mins, 37 degrees): 0.3313
Example 29 (GS-343071) in ALP (Peak Area Ratio) mean ([2]; Time 45.0 mins, 37 degrees): 0.0673
Example 29 (GS-343071) in ALP (Peak Area Ratio) Normalized ([2]; Time 60.0 mins, 37 degrees): 0.2850
Example 29 (GS-343071) in ALP (Peak Area Ratio) mean ([2]; Time 60.0 mins, 37 degrees): 0.0579
Example 29 (GS-343071) in ALP (Peak Area Ratio) Normalized ([2]; Time 75.0 mins, 37 degrees): 0.2387
Example 29 (GS-343071) in ALP (Peak Area Ratio) mean ([2]; Time 75.0 mins, 37 degrees): 0.0485
Example 29 (GS-343071) in ALP (Peak Area Ratio) Normalized ([2]; Time 90.0 mins, 37 degrees): 0.2079
Example 29 (GS-343071) in ALP (Peak Area Ratio) mean ([2]; Time 90.0 mins, 37 degrees): 0.0422
Example 29 (GS-343071) in ALP (Peak Area Ratio) Normalized ([2]; Time 105 mins, 37 degrees): 0.2017
Example 29 (GS-343071) in ALP (Peak Area Ratio) mean ([2]; Time 105 mins, 37 degrees): 0.0410
Example 29 (GS-343071) in ALP (Peak Area Ratio) Normalized ([2]; Time 120 mins, 37 degrees): 0.1788
Example 29 (GS-343071) in ALP (Peak Area Ratio) mean ([2]; Time 120 mins, 37 degrees): 0.0363
Example 29 (GS-343071) in ALP (Peak Area Ratio) Normalized ([2]; Time 135 mins, 37 degrees): 0.1643
Example 29 (GS-343071) in ALP (Peak Area Ratio) mean ([2]; Time 135 mins, 37 degrees): 0.0334
Example 29 (GS-343071) in ALP (Peak Area Ratio) Normalized ([2]; Time 150 mins, 37 degrees): 0.1397
Example 29 (GS-343071) in ALP (Peak Area Ratio) mean ([2]; Time 150 mins, 37 degrees): 0.0284
Example 29 (GS-343071) in ALP (Peak Area Ratio) Normalized ([2]; Time 165 mins, 37 degrees): 0.1310
Example 29 (GS-343071) in ALP (Peak Area Ratio) mean ([2]; Time 165 mins, 37 degrees): 0.0266
Example 29 (GS-343071) in ALP (Peak Area Ratio) Normalized ([2]; Time 180 mins, 37 degrees): 0.1372
Example 29 (GS-343071) in ALP (Peak Area Ratio) mean ([2]; Time 180 mins, 37 degrees): 0.0279
Example 29 (GS-343071) in ALP (Peak Area Ratio) Normalized ([2]; Time 210 mins, 37 degrees): 0.1163
Example 29 (GS-343071) in ALP (Peak Area Ratio) mean ([2]; Time 210 mins, 37 degrees): 0.0236
Example 29 (GS-343071) in ALP (Peak Area Ratio) Normalized ([2]; Time 240 mins, 37 degrees): 0.0978
Example 29 (GS-343071) in ALP (Peak Area Ratio) mean ([2]; Time 240 mins, 37 degrees): 0.0199
Example 29 (GS-343071) in ALP (Peak Area Ratio) Normalized ([2]; Time 270 mins, 37 degrees): 0.0906
Example 29 (GS-343071) in ALP (Peak Area Ratio) mean ([2]; Time 270 mins, 37 degrees): 0.0184
half-life ([2]; human, pH 7.4, ALP Enzyme Conc. 0.224 mg/mL, 37 degrees, first order kinetics assumed, read-out: Half Life t1/2): 1.04 h
half-life at 86.6 μM ([2]; human, pH 7.4, ALP Enzyme Conc. 0.443 mg/mL, 37 degrees, first order kinetics assumed, read-out: Half Life t1/2): 0.72 h

CN1CCC(CNC(=O)[C@H]2CCCN2C(=O)[C@@H]2CC(O)CN2C(=O)CC(c2ccc(F)cc2)(c2ccc(F)cc2)c2ccc(F)cc2)CC1 (stereo partly drawn) [dipeptide (Sagara 2006), 1-{4-hydroxy-1-[3,3,3-tris-(4-fluoro-phenyl)-propionyl]-pyrrolidine-(S)-2-carbonyl}-pyrrolidine-(R)-2-carboxylic acid-(1-methyl-piperidin-4-ylmethyl)-amide, reference compound]
Formation of dipeptide (Sagara 2006) in ALP (Peak Area Ratio) Normalized ([2]; Time 0 mins, 37 degrees): 1.0000
Formation of dipeptide (Sagara 2006) in ALP (Peak Area Ratio) mean ([2]; Time 0 mins, 37 degrees): 0.1765
Formation of dipeptide (Sagara 2006) in ALP (Peak Area Ratio) Normalized ([2]; Time 15.0 mins, 37 degrees): 1.9830
Formation of dipeptide (Sagara 2006) in ALP (Peak Area Ratio) mean ([2]; Time 15.0 mins, 37 degrees): 0.3500
Formation of dipeptide (Sagara 2006) in ALP (Peak Area Ratio) Normalized ([2]; Time 30.0 mins, 37 degrees): 2.7365
Formation of dipeptide (Sagara 2006) in ALP (Peak Area Ratio) mean ([2]; Time 30.0 mins, 37 degrees): 0.4830
Formation of dipeptide (Sagara 2006) in ALP (Peak Area Ratio) Normalized ([2]; Time 45.0 mins, 37 degrees): 2.7989
Formation of dipeptide (Sagara 2006) in ALP (Peak Area Ratio) mean ([2]; Time 45.0 mins, 37 degrees): 0.4940
Formation of dipeptide (Sagara 2006) in ALP (Peak Area Ratio) Normalized ([2]; Time 60.0 mins, 37 degrees): 3.0595
Formation of dipeptide (Sagara 2006) in ALP (Peak Area Ratio) mean ([2]; Time 60.0 mins, 37 degrees): 0.5400
Formation of dipeptide (Sagara 2006) in ALP (Peak Area Ratio) Normalized ([2]; Time 75.0 mins, 37 degrees): 3.2210
Formation of dipeptide (Sagara 2006) in ALP (Peak Area Ratio) mean ([2]; Time 75.0 mins, 37 degrees): 0.5685
Formation of dipeptide (Sagara 2006) in ALP (Peak Area Ratio) Normalized ([2]; Time 90.0 mins, 37 degrees): 3.6402
Formation of dipeptide (Sagara 2006) in ALP (Peak Area Ratio) mean ([2]; Time 90.0 mins, 37 degrees): 0.6425
Formation of dipeptide (Sagara 2006) in ALP (Peak Area Ratio) Normalized ([2]; Time 105 mins, 37 degrees): 3.8612
Formation of dipeptide (Sagara 2006) in ALP (Peak Area Ratio) mean ([2]; Time 105 mins, 37 degrees): 0.6815
Formation of dipeptide (Sagara 2006) in ALP (Peak Area Ratio) Normalized ([2]; Time 120 mins, 37 degrees): 3.9207
Formation of dipeptide (Sagara 2006) in ALP (Peak Area Ratio) mean ([2]; Time 120 mins, 37 degrees): 0.6920
Formation of dipeptide (Sagara 2006) in ALP (Peak Area Ratio) Normalized ([2]; Time 135 mins, 37 degrees): 4.0793
Formation of dipeptide (Sagara 2006) in ALP (Peak Area Ratio) mean ([2]; Time 135 mins, 37 degrees): 0.7200
Formation of dipeptide (Sagara 2006) in ALP (Peak Area Ratio) Normalized ([2]; Time 150 mins, 37 degrees): 4.2890
Formation of dipeptide (Sagara 2006) in ALP (Peak Area Ratio) mean ([2]; Time 150 mins, 37 degrees): 0.7570
Formation of dipeptide (Sagara 2006) in ALP (Peak Area Ratio) Normalized ([2]; Time 165 mins, 37 degrees): 4.4193
Formation of dipeptide (Sagara 2006) in ALP (Peak Area Ratio) mean ([2]; Time 165 mins, 37 degrees): 0.7800
Formation of dipeptide (Sagara 2006) in ALP (Peak Area Ratio) Normalized ([2]; Time 180 mins, 37 degrees): 4.7082
Formation of dipeptide (Sagara 2006) in ALP (Peak Area Ratio) mean ([2]; Time 180 mins, 37 degrees): 0.8310
Formation of dipeptide (Sagara 2006) in ALP (Peak Area Ratio) Normalized ([2]; Time 210 mins, 37 degrees): 5.0227
Formation of dipeptide (Sagara 2006) in ALP (Peak Area Ratio) mean ([2]; Time 210 mins, 37 degrees): 0.8865
Formation of dipeptide (Sagara 2006) in ALP (Peak Area Ratio) Normalized ([2]; Time 240 mins, 37 degrees): 5.0567
Formation of dipeptide (Sagara 2006) in ALP (Peak Area Ratio) mean ([2]; Time 240 mins, 37 degrees): 0.8925
Formation of dipeptide (Sagara 2006) in ALP (Peak Area Ratio) Normalized ([2]; Time 270 mins, 37 degrees): 5.6997
Formation of dipeptide (Sagara 2006) in ALP (Peak Area Ratio) mean ([2]; Time 270 mins, 37 degrees): 1.0060
